One assay deals with ckP2X7 T202W. It is filed as cell-based, chicken.
The target of the next assay is T1, rP2X2 K212A (Rattus norvegicus, UniProt P49653, K212A).
T1 construct: expressed in transfected cells; host or cells: HEK293
T1 sequence (P49653 1-472 K212A): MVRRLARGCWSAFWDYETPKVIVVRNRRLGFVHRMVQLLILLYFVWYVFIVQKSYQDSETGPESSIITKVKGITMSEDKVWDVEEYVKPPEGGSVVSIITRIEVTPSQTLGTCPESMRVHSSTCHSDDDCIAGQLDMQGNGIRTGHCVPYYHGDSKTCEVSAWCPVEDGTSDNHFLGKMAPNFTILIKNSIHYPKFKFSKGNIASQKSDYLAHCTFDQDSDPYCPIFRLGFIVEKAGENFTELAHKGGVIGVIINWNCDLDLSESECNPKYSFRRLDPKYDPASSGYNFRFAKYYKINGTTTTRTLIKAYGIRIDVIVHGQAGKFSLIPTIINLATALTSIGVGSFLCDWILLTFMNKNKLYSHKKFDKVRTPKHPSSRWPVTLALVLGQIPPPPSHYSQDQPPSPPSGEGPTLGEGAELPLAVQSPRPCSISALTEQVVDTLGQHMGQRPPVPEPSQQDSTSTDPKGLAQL
Put plainly: Conventional whole-cell patch recording of ATP-evoked currents, transfected HEK293 cells. It is filed as cell-based. Here is the method:
(§1) As we described previously, [41], [42], human embryonic kidney (HEK 293) cells were purchased from Shanghai Institutes for Biological Sciences and cultured in Dulbecco's Modified Eagle Medium supplemented with 10% fetal bovine serum (FBS), 1% penicillin-streptomycin and 1% GlutaMAX™ at 37 °C, 5% CO2 and 95% air in a humidified environment. Plasmids were transfected into cells using transfection agents containing two solutions (Solution A: 250 mM CaCl2 in pure water; Solution B (in mM): 1.5 Na2HPO4, 140 NaCl and 50 HEPES, pH adjusted to 6.96). After mixing 2.5–3 μg of the plasmid and solution A, the mixture was added dropwise to an equal volume of solution B, followed by stirring with a pipette tip. The mixture was left to stabilize at room temperature for 3–5 min and then added to the cell culture dish. After 6 h of transfection, the medium in the culture dish was replaced with fresh medium.
(§2) Nystatin (0.15 mg/mL) was diluted with a high potassium internal solution containing (in mM): 75 K2SO4, 55 KCl, 5 MgSO4, and 10 HEPES (pH 7.4). The ckP2X7 and rP2X2 receptor currents were recorded using conventional whole-cell patch configuration. At 24–48 h after transfection, HEK293 cells were recorded using an Axopatch 200B amplifier (Molecular Devices, USA) at room temperature (25 ± 2 °C), with holding a potential of − 60 mV. Current data were sampled at 10 kHz, filtered at 2 kHz, and analyzed using the PCLAMP 10 software (Molecular Devices, USA). HEK293 cells were bathed in standard extracellular solution (SS) containing (in mM): 150 NaCl, 5 KCl, 2 CaCl2, 1 MgCl2, 10 glucose, and 10 HEPES (pH 7.4, by Tris-base). For conventional whole-cell recordings, the pipette solution consisted of (in mM): 120 KCl, 30 NaCl, 0.5 CaCl2, 1 MgCl2, 5 EGTA, and 10 HEPES (pH 7.4, by Tris-base). ATP and drugs were dissolved in standard extracellular solution and administered with a Y-tube.
(§3) All electrophysiological recordings were analyzed using Clampfit 10.6 (Molecular Devices). Pooled data were expressed as mean and standard error of the mean (s.e.m.). Comparisons between multiple independent groups were performed using one-way ANOVA followed by Dunnett's tests. Comparisons between two groups were made using paired (before and after engineered disulfide bond cross-linking) or unpaired Student’s t tests, as appropriate.

In a further assay the target is T2, rP2X2 V119W/H120W (Rattus norvegicus, UniProt P49653, H120W/V119W).
T2 construct: expressed in transfected cells; host or cells: HEK293
T2 sequence (P49653 1-472 V119W/H120W): T1 sequence (P49653 1-472 K212A) with V119W, H120W, A212K
Described as above. It is filed as cell-based. Here is the method: as §1, §2, §3

A further assay has as its target T3, rP2X2 WT (Rattus norvegicus, UniProt P49653).
T3 construct: expressed in transfected cells; host or cells: HEK293
T3 sequence (P49653 1-472): T1 sequence (P49653 1-472 K212A) with A212K
The assay is described as above. It is filed as cell-based. Here is the method: as §1, §2, §3

A further assay relates to F 174 A mutant of hP2X3. Further details: method as in PMID 24223907. To be noted: hP2X3 F174A; cited from earlier work.
Another assay deals with T4, rP2X3 WT (Rattus norvegicus, UniProt P49654).
T4 construct: EGFP (only implied by the anti-EGFP blot of rP2X3 plasmids); expressed in transfected cells; host or cells: HEK293
T4 sequence (P49654 1-397): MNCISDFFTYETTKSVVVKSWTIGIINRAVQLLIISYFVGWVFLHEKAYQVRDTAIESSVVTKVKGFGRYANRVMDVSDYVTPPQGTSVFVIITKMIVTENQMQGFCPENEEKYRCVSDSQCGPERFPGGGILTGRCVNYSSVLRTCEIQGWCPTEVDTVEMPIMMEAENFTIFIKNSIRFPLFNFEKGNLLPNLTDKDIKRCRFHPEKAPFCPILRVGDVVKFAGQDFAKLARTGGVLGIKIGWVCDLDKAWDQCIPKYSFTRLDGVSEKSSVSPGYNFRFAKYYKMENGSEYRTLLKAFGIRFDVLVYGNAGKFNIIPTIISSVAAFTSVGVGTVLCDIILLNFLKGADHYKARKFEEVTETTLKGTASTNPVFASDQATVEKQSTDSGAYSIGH
Put plainly: Nystatin perforated patch recording of ATP-evoked currents, transfected HEK293 cells. The class given is cell-based. To be noted: Hill 1 fit, mean ± s.e.m. Here is the method:
As we described previously, [41], [42], human embryonic kidney (HEK 293) cells were purchased from Shanghai Institutes for Biological Sciences and cultured in Dulbecco's Modified Eagle Medium supplemented with 10% fetal bovine serum (FBS), 1% penicillin-streptomycin and 1% GlutaMAX™ at 37 °C, 5% CO2 and 95% air in a humidified environment. Plasmids were transfected into cells using transfection agents containing two solutions (Solution A: 250 mM CaCl2 in pure water; Solution B (in mM): 1.5 Na2HPO4, 140 NaCl and 50 HEPES, pH adjusted to 6.96). […]
Nystatin (0.15 mg/mL) was diluted with a high potassium internal solution containing (in mM): 75 K2SO4, 55 KCl, 5 MgSO4, and 10 HEPES (pH 7.4). The ckP2X7 and rP2X2 receptor currents were recorded using conventional whole-cell patch configuration. At 24–48 h after transfection, HEK293 cells were recorded using an Axopatch 200B amplifier (Molecular Devices, USA) at room temperature (25 ± 2 °C), with holding a potential of − 60 mV. Current data were sampled at 10 kHz, filtered at 2 kHz, and analyzed using the PCLAMP 10 software (Molecular Devices, USA). […]
All electrophysiological recordings were analyzed using Clampfit 10.6 (Molecular Devices). Pooled data were expressed as mean and standard error of the mean (s.e.m.). […]

The next assay addresses T5, hP2X3 WT (Homo sapiens, UniProt P56373).
T5 construct: host or cells: HEK293
T5 sequence (P56373 1-397): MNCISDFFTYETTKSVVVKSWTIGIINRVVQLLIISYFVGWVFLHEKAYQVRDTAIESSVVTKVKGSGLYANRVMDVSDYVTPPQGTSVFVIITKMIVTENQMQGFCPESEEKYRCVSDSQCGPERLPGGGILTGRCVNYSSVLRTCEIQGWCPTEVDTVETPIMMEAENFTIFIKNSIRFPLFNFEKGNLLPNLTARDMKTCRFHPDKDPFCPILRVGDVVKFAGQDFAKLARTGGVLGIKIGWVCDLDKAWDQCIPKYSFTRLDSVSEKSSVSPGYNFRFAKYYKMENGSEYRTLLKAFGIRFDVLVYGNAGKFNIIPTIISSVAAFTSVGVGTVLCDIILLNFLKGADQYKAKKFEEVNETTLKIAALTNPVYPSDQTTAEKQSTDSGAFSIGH
The assay is described as above. It is filed as cell-based. To be noted: Hill 1 fit.

Another assay deals with T6, hP2X3 R204A (Homo sapiens, UniProt P56373, R204A).
T6 construct: expressed in transfected cells; host or cells: HEK293
T6 sequence (P56373 1-397 R204A): T5 sequence (P56373 1-397) with R204A
The assay is described as above. The class given is cell-based.

Another assay deals with T7, rP2X3 K201C/V274C (Rattus norvegicus, UniProt P49654, K201C/V274C).
T7 construct: EGFP (only implied by the anti-EGFP blot of rP2X3 plasmids); expressed in transfected cells; host or cells: HEK293
T7 sequence (P49654 1-397 K201C/V274C): T4 sequence (P49654 1-397) with K201C, V274C
The description is as above. The class given is cell-based. To be noted: Hill 1 fit.

For another assay, the target named is T8, hP2X3 K113A (Homo sapiens, UniProt P56373, K113A).
T8 construct: expressed in transfected cells; host or cells: HEK293
T8 sequence (P56373 1-397 K113A): T5 sequence (P56373 1-397) with K113A
The assay is described as above. It is filed as cell-based.

Changes are numbered by the printed parent chain.

What is called IC50 is the concentration that gives 50% inhibition. A lower IC50 goes with greater potency. In the case of `Nc1ncnc2c1ncn2[C@@H]1O[C@H](COP(=O)(O)OP(=O)(O)OP(=O)(O)O)[C@H]2OC3(O[C@H]21)C([N+](=O)[O-])=CC(=[N+]([O-])[O-])C=C3[N+](=O)[O-]` (stereo partly shown) [TNP-ATP, 2',3'-O-(2,4,6-trinitrophenyl)-ATP], the “enhancement of apparent affinity of TNP-ATP vs WT” value in the assay on ckP2X7 T202W (1 mM ATP) is given as “about 38 fold”. For the same compound, the IC50 was determined as 15.8 ± 2 µM against rP2X2 K212A, 24.9 ± 5 µM on rP2X2 V119W/H120W and 3.14 ± 0.95 µM against rP2X2 WT. The “reduction of potency of inhibition by TNP-ATP vs WT” value on rP2X2 K212A (rP2X2 K212A vs rP2X2 WT) is reported as about 5 fold. Also, the “reduction of sensitivity to TNP-ATP inhibition vs WT” value on rP2X2 V119W/H120W (rP2X2 V119W/H120W vs rP2X2 WT) was about 8 fold. The “effect of mutation on inhibition by TNP-ATP” value with F 174 A mutant of hP2X3 is reported as “does not alter the inhibition”.

A word on the EC50: it is the concentration at which the effect is half-maximal. Read a low EC50 as an effect from little substance. As for `Nc1ncnc2c1ncn2[C@@H]1O[C@H](COP(=O)(O)OP(=O)(O)OP(=O)(O)O)[C@@H](O)[C@H]1O` [ATP], the “reduction in affinity to ATP vs WT” value in the assay on ckP2X7 T202W was “approximately 60 fold”. Moreover, the EC50 on rP2X2 K212A (rP2X2 K212A) stood at 9.83 ± 0.34 µM; on rP2X2 V119W/H120W (rP2X2 V119W/H120W), 221 ± 36 µM; at rP2X2 WT (rP2X2 WT) it was 5.39 ± 0.11 µM; on rP2X3 WT, 0.832 ± 0.143 µM; on hP2X3 WT, 0.767 ± 0.099 µM; on hP2X3 R204A, 1.22 ± 0.22 µM. For the same compound, the figures for the EC50 at rP2X3 K201C/V274C and at hP2X3 K113A were 12.9 ± 2.7 µM and 0.872 ± 0.232 µM, respectively.

The record behind these values is PMC10762375 (Computational and Structural Biotechnology Journal, 2023).
